Measurements published in PMC6273342, “Cytotoxic Alkaloids from the Stem of Xylopia laevigata” (Molecules, 2016).
Where two headings read alike, the source gives them in different places.

Key:
[1] = tested on: B16-F10 (mouse melanoma); assay: Alamar Blue cytotoxicity assay, B16-F10; format: cell-based; details: 72 h incubation
Text: (§1) Camargo, São Paulo, Brazil.

[2] = in vitro; details: mouse (B16-F10); human (HepG2, K562, HL-60)
Experimental: (§3) B16-F10, HepG2, K562 and HL-60 tumor cell lines were kindly donated by Hospital A.C. […] Cells were maintained in RPMI 1640 medium (Gibco-BRL, Gaithersburg, MD, USA) with 10% fetal bovine serum (Cultilab, Campinas, Brazil), 2 mM L-glutamine (Vetec Química Fina, Duque de Caxias, Brazil) and 50 μg/mL gentamycin (Novafarma, Anápolis, Brazil). Adherent cells were collected by treatment with 0.25% trypsin-EDTA solution (Gibco-BRL). All cell lines were cultured in flasks at 37 °C in 5% CO2 and sub-cultured every 3–4 days to maintain exponential growth. All cell lines were tested for mycoplasma using a Mycoplasma Stain Kit (Sigma-Aldrich, St. Louis, MO, USA) to confirm that the cells were free from contamination.
(§4) Cell viability was quantified using the Alamar Blue assay, according to Ahmed et al. [23]. Cells were placed in 96-well plates for all experiments (0.7 × 10^5 cells/mL for adherent cells or 0.3 × 10^6 cells/mL for suspended cells in 100 μL of medium). After 24 h, the alkaloids (in a range of eight different concentrations varying from 0.19 to 25 μg/mL) were dissolved in dimethyl sulfoxide (DMSO, Sigma-Aldrich Co.), and the solution was added to each well and incubated for 72 h. […] Negative controls received the vehicle that was used for diluting the alkaloids (0.5% DMSO). Four (for cell lines) or 24 h (for PBMCs) before the end of incubation, 20 μL of a stock solution (0.312 mg/mL) of the Alamar Blue (resazurin, Sigma-Aldrich Co.) was added to each well. The absorbance at 570 nm and 600 nm was measured using a SpectraMax 190 Microplate Reader (Molecular Devices, Sunnyvale, CA, USA), and the drug effect was quantified as the percentage of control absorbance.

[3] = tested on: HL-60 (human promyelocytic leukemia); assay: Alamar Blue cytotoxicity assay, HL-60; format: cell-based; details: for IC50: Homo sapiens, HL-60, Alamar Blue, 72 h incubation, read-out: IC50 HL60; for selectivity index (SI): SI = IC50[PBMC]/IC50[HL-60]
Experimental: as §3, §4

[4] = tested on: K562 (human chronic myelocytic leukemia); assay: Alamar Blue cytotoxicity assay, K562; format: cell-based; details: 72 h incubation
Text: as §1

[5] = tested on: peripheral blood mononuclear cells (PBMCs); assay: Alamar Blue cytotoxicity assay, non-tumor PBMCs; format: cell-based; details: Homo sapiens, PBMC, 72 h incubation, ConA-stimulated PBMCs
Experimental: Heparinized blood was collected from 20- to 35-year-old, healthy non-smokers who had not taken any drugs for at least 15 days prior to sampling, and the peripheral blood mononuclear cells (PBMCs) were isolated using a Ficoll density gradient in a Ficoll-Paque Plus (GE Healthcare Bio-Sciences AB, Uppsala, Sweden). PBMCs were washed and resuspended at a concentration of 0.3 × 10^6 cells/mL in RPMI 1640 medium with 20% fetal bovine serum, 2 mM L-glutamine and 50 μg/mL gentamycin at 37 °C with 5% CO2. Concanavalin A (ConA, Sigma-Aldrich Co.) was used as a mitogen to trigger cell division in T-lymphocytes. ConA (10 μg/mL) was added at the beginning of culture, and the cells were treated with the test compounds after 24 h. Cell viability was examined using a trypan blue exclusion assay for all experiments. Over 90% of the cells were viable at the beginning of the culture. The Research Ethics Committee of the Oswaldo Cruz Foundation (Salvador, Bahia, Brazil) approved the experimental protocol (#031019/2013). All participants signed a written informed consent to participate in the study.

[6] = tested on: HepG2 (human hepatocellular carcinoma); assay: Alamar Blue cytotoxicity assay, HepG2; format: cell-based; details: 72 h incubation
Text: as §1

[7] = tested on: tumor cell lines B16-F10, HepG2, K562 and HL-60; assay: Alamar Blue cytotoxicity assay, summary over the tumor cell lines tested; details: 72 h, read-out: IC50 in at least one of the tumor cell lines tested
Experimental: as §3, §4

[8] = set-up: method as in PMID 22491683; details: previously studied; cited from earlier work
[9] = tested on: HepG2 cells; assay: Trypan Blue dye exclusion, HepG2; format: cell-based, human; details: HepG2, 24 h, lanuginosine 10 and 20 μg/mL, (+)-xylopine 5 and 10 μg/mL
Experimental: (§2) The following set of experiments was performed to investigate the mechanisms involved in the cytotoxic action of the alkaloids lanuginosine and (+)-xylopine. In all experiments, 2 mL of a HepG2 cell solution (0.7 × 10^5 cells/mL) was placed in 24-well plates and incubated overnight to allow the cells to adhere to the plate surface. The cells were then treated for 24 h with the alkaloids lanuginosine (10 and 20 μg/mL) and (+)-xylopine (5 and 10 μg/mL). The negative control was treated with the vehicle (0.2% DMSO) used for diluting the alkaloids. […] Cell viability was assessed for all experiments using a Trypan Blue exclusion assay.

[10] = tested on: HepG2 cells; assay: Acridine Orange/ethidium bromide staining, fluorescence microscopy, HepG2; format: cell-based, human; details: HepG2, 24 h; lanuginosine 10 and 20 μg/mL, (+)-xylopine 5 and 10 μg/mL; p < 0.05
Experimental: as §2
Cells were pelleted and resuspended in saline (25 μL). Then, 1 μL of aqueous solution of AO/EB (100 μg/mL, Sigma-Aldrich Co.) was added, and the cell viability changes were observed under a fluorescence microscope (Olympus BX41). In this assay, AO permeates all cells and makes the nuclei appear green. EB is only taken up by cells when the cytoplasmic membrane integrity is lost and stains the nucleus red. EB also dominates over AO. Thus, live cells have a normal green nucleus; early apoptotic cells have a bright green nucleus with condensed or fragmented chromatin; late apoptotic cells display condensed and fragmented orange chromatin; cells that have died from direct necrosis have a structurally normal orange nucleus. Three hundred cells were counted per sample and classified as viable, apoptotic or necrotic.

[11] = tested on: HepG2 cells; assay: Annexin assay (phosphatidylserine externalization, flow cytometry), HepG2; format: cell-based, human; details: HepG2, 24 h; p < 0.05; without affecting the cell membrane integrity
Experimental: as §2
Phosphatidylserine externalization was analyzed by flow cytometry. A FITC annexin V apoptosis detection kit (BD Biosciences, San Jose, CA, USA) was used to determine cell viability (viable, early apoptotic, late apoptotic and necrotic cells). Cells were washed twice with saline and then resuspended in 100 μL of binding buffer with 5 μL of propidium iodide and 5 μL of FITC annexin V. The cells were gently mixed on a vortexer and incubated for 15 min at room temperature (20–25 °C) in the dark. Afterwards, 400 μL of binding buffer was added to each tube and the cells were analyzed by flow cytometry on a BD LSRFortessa cytometer using BD FACSDiva Software (BD Biosciences) and Flowjo Software 10 (Flowjo LCC, Ashland, OR, USA). Ten thousand events were evaluated per experiment and cellular debris was omitted from the analysis.

[12] = tested on: HepG2 cells; assay: Morphological analysis with May-Grünwald-Giemsa staining, HepG2; format: cell-based, human; details: HepG2, 24 h; lanuginosine 10 and 20 μg/mL, (+)-xylopine 5 and 10 μg/mL
Experimental: as §2
To evaluate alterations in morphology, cells were cultured under a coverslip, fixed with methanol for 30 s and stained with May-Grünwald-Giemsa stain. Morphological changes were examined by light microscopy (Olympus BX41, Tokyo, Japan) using Image-Pro software (Media Cybernetics, Rockville, MD, USA).

[13] = tested on: HepG2 cells; assay: Internucleosomal DNA fragmentation and cell cycle distribution (flow cytometry, propidium iodide), HepG2; format: cell-based, human; details: HepG2, 24 h; for Cell Cycle Phases (%) G2/M: NC 19.93 ± 6.12; for Cell Cycle Phases (%) G1: NC 51.50 ± 4.02
Experimental: as §2
Cells were harvested in a lysis solution containing 0.1% triton X-100 (Sigma Chemical Co., St. Louis, MO, USA), 2 µg/mL propidium iodide (Sigma Chemical Co.), 0.1% sodium citrate and 100 µg/mL RNAse (Sigma Chemical Co.). Cell fluorescence was determined by flow cytometry on a BD LSRFortessa cytometer using BD FACSDiva Software (BD Biosciences) and Flowjo Software 10. Ten thousand events were evaluated per experiment and cellular debris was omitted from the analysis.

Compound | IC50 [1] | IC50 [3] | IC50 [4] | IC50 [5] | IC50 [6] | IC50 [7] | IC50 ([1]; value in brackets) | IC50 ([3]; value in brackets) | selectivity index (SI) [3] | IC50 ([4]; value in brackets) | IC50 ([5]; value in brackets) | IC50 ([6]; value in brackets) | other results
COc1cc2c(cc1OC)-c1c(OC)c(O)cc3c1C(C2)NCC3 (single isomer, unassigned; (+)) [(+)-Norpredicentrine, (+)-norpredicentrine] | > 25 µg/mL | > 25 µg/mL | > 25 µg/mL | > 25 µg/mL | > 25 µg/mL |  |  |  |  |  |  |  | IC50 at 72 h [2]: > 25 µg/mL
COc1cc2c(cc1OC)-c1c(OC)c(OC)cc3c1C(C2)NCC3 (single isomer, unassigned; (+)) [(+)-Norglaucine, (+)-norglaucine] | 8.48 µg/mL | 6.84 µg/mL | 7.84 µg/mL | 6.7 µg/mL | 3.78 µg/mL | < 4 µg/mL | 24.8 µM | 20 µM | 1.0 | 22.9 µM | 19.6 µM | 11 µM | pro-apoptotic effect [8]: no effect was found
COc1ccc2c(c1)C[C@@H]1NCCc3cc4c(c-2c31)OCO4 [(+)-Xylopine, (+)-xylopine] | 3.77 µg/mL | 1.87 µg/mL | 3.12 µg/mL | 4.08 µg/mL | 1.87 µg/mL | < 4 µg/mL | 12.7 µM | 6.31 µM | 2.2 | 10.5 µM | 13.8 µM | 6.31 µM | number of non-viable cells [9]: without increasing the number of non-viable cells; number of viable cells ([9]; p < 0.05): reduce the number of viable cells; number of apoptotic cells (AO/EB) [10]: increased number of apoptotic cells; phosphatidylserine exposure [11]: significant increase in phosphatidylserine exposure; cell morphology [12]: morphology consistent with apoptosis, including chromatin condensation and fragmentation of the nuclei; Cell Cycle Phases (%) S ([13]; 5 µg/mL, NC 16.11 ± 1.89): 10.80 ± 1.50 %; Cell Cycle Phases (%) G2/M ([13]; 5 µg/mL): 64.16 ± 2.56 %; Cell Cycle Phases (%) G1 ([13]; 5 µg/mL): 28.05 ± 3.15 %; Cell Cycle Phases (%) G2/M ([13]; 10 µg/mL): 39.96 ± 9.59 %; Cell Cycle Phases (%) G1 ([13]; 10 µg/mL): 20.43 ± 3.06 %; effect on cell cycle distribution ([13]; 5 and 10 μg/mL): total number of cells in the G2/M phase increased, indicating cell cycle arrest during this phase; internucleosomal DNA fragmentation (sub-G1) ([13]; 5 and 10 μg/mL, p < 0.05): increase in the internucleosomal DNA fragmentation
